Laboratory results: ChEMBL document CHEMBL5104136, “Discovery of benzodioxane analogues as lead candidates of AIMP2-DX2 inhibitors” (Bioorg Med Chem Lett, 2022)

How the values were obtained:
[1] = target: T1, Aminoacyl tRNA synthase complex-interacting multifunctional protein 2 (Homo sapiens, UniProt Q13155); assay: Inhibition of AIMP2-DX2 in human A549 cells by luciferase assay; assay type: cell-based
[2] = Metabolic stability in mouse assessed as half life; assay type: ADME
Cytochrome P450 3A4 = Cytochrome P450 3A4 (Homo sapiens, UniProt P08684); assay: Inhibition of CYP3A4 (unknown origin); assay type: ADME
Cytochrome P450 2C9 = Cytochrome P450 2C9 (Homo sapiens, UniProt P11712); assay: Inhibition of CYP2C9 (unknown origin); assay type: ADME
[3] = Plasma stability in human assessed as compound remaining measured after 2 hrs; assay type: ADME, cell-free; details: read-out: Stability
Cytochrome P450 1A2 = target: T2, Cytochrome P450 1A2 (Homo sapiens, UniProt P05177); assay: Inhibition of CYP1A2 (unknown origin); assay type: ADME
T2 sequence (P05177 whole entry): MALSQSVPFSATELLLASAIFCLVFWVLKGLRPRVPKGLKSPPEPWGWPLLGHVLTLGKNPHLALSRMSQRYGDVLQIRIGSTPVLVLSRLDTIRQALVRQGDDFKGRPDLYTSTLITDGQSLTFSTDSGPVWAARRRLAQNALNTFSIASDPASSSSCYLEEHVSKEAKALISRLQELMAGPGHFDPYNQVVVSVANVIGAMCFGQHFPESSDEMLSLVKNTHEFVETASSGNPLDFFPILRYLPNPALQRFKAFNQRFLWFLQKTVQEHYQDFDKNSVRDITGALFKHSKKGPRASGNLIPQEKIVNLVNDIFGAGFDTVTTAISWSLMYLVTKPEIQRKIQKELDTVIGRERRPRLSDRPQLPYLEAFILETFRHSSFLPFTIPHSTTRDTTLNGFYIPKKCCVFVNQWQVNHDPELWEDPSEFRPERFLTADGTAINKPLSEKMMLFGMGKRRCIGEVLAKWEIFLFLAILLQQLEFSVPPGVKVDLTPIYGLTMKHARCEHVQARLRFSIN

Cytochrome P450 2D6 = Cytochrome P450 2D6 (Homo sapiens, UniProt P10635); assay: Inhibition of CYP2D6 (unknown origin); assay type: ADME
Cytochrome P450 2C19 = Cytochrome P450 2C19 (Homo sapiens, UniProt P33261); assay: Inhibition of CYP2C19 (unknown origin); assay type: ADME
[4] = target: T1, Aminoacyl tRNA synthase complex-interacting multifunctional protein 2; assay: Inhibition of AIMP2-DX2 in human A549 cells by nanoluciferase based assay; assay type: cell-based
[5] = Plasma stability in mouse assessed as compound remaining measured after 2 hrs; assay type: ADME, cell-free; details: read-out: Stability
[6] = Cytotoxicity against human WI-26 cells expressing low levels of AIMP2-DX2 assessed as reduction in cell viability incubated for 96 hrs; assay type: toxicity, cell-based; details: wi-26, 96 h
A549 [7] = assay: Cytotoxicity against human A549 cells expressing high levels of AIMP2-DX2 assessed as reduction in cell viability incubated for 96 hrs; assay type: functional, cell-based; details: A549, 96 h
[8] = Metabolic stability in human assessed as half life; assay type: ADME
NCI-H460 = assay: Cytotoxicity against human NCI-H460 cells expressing median levels of AIMP2-DX2 assessed as reduction in cell viability incubated for 96 hrs; assay type: functional, cell-based; details: NCI-H460, 96 h
A549 [9] = assay: Inhibition of cell proliferation in human A549 cells; assay type: functional, cell-based

Chain of Cytochrome P450 3A4 (P08684 whole entry): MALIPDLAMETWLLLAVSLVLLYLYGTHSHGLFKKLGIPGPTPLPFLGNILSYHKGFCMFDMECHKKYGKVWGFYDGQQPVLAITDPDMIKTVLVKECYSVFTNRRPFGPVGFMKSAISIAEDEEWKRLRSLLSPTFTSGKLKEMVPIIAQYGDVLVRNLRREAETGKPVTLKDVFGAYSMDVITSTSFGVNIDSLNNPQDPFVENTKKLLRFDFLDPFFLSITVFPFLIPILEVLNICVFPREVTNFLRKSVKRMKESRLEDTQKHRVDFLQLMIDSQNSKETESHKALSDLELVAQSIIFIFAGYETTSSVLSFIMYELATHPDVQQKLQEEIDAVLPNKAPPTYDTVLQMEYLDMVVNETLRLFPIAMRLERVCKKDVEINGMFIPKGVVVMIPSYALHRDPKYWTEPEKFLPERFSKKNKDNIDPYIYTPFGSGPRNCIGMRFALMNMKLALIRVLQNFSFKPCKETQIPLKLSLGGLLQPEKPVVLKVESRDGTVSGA
Chain of Cytochrome P450 2D6 (P10635 whole entry): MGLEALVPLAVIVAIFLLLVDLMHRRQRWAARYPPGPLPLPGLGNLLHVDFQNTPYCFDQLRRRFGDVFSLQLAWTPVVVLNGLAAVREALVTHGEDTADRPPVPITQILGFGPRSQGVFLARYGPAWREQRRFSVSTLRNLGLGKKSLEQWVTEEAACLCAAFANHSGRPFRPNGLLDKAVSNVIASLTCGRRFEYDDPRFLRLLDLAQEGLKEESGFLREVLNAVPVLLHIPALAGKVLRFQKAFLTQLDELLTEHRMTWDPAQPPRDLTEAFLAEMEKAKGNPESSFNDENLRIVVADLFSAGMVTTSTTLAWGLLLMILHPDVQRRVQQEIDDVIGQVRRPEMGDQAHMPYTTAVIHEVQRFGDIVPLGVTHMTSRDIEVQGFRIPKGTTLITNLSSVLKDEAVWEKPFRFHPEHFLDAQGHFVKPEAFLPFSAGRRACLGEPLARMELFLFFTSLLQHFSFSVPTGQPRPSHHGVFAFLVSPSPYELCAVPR
Chain of Cytochrome P450 2C19 (P33261 whole entry): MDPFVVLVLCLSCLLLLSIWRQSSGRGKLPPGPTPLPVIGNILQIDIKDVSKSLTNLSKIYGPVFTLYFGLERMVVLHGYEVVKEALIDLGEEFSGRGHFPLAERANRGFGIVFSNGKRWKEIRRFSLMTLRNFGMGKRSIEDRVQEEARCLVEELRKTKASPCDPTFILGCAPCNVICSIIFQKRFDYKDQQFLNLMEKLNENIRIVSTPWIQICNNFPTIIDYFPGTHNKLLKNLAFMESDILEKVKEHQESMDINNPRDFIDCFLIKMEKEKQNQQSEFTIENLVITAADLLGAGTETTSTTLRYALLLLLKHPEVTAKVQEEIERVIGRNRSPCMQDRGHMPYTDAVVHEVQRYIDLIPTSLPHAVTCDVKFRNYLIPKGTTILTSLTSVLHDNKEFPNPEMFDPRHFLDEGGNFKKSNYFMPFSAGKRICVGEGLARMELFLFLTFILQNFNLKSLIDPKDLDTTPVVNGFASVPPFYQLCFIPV
T1 sequence (Q13155 whole entry, looked up, one chain of several): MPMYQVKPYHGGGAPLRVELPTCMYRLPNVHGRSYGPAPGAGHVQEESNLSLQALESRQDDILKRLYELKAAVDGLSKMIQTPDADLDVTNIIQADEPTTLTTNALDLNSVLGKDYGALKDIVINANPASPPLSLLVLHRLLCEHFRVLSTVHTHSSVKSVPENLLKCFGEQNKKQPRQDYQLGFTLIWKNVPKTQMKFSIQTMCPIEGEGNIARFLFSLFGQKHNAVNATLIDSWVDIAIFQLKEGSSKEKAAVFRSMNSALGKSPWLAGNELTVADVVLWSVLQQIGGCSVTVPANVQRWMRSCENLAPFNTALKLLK
Chain of Cytochrome P450 2C9 (P11712 whole entry): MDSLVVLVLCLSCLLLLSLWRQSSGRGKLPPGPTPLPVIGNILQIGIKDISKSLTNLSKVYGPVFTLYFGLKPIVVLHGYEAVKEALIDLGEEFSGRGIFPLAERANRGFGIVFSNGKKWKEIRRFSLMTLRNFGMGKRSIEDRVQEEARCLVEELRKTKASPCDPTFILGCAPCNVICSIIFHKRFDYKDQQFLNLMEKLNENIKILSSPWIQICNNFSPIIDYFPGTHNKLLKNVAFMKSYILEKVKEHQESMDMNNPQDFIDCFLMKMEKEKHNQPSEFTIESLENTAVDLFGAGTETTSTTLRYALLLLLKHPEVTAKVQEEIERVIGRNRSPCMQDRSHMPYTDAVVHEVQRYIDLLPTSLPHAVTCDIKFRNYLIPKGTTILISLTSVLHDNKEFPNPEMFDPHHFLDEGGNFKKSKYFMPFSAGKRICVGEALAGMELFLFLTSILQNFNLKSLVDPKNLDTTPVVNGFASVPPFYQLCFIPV

| Compound | IC50 [1] [nM] | half-life [2] [min] | IC50 (Cytochrome P450 3A4) [nM] | IC50 (Cytochrome P450 2C9) [nM] | remaining at 2 h [3] [%] | IC50 (Cytochrome P450 1A2) [nM] | IC50 (Cytochrome P450 2D6) [nM] | IC50 (Cytochrome P450 2C19) [nM] | IC50 [4] [nM] | remaining at 2 h [5] [%] | half-life [8] [min] | IC50 (A549 [9]) [nM] | Activity [6] | EC50 (A549 [7]) [nM] | EC50 (NCI-H460) [nM] |
| --- | --- | --- | --- | --- | --- | --- | --- | --- | --- | --- | --- | --- | --- | --- | --- |
| Cc1cc2occ(CC(=O)NCC3COc4ccccc4O3)c2cc1C (stereo unspecified) |  |  |  |  |  |  |  |  |  |  |  |  | Non-Toxic | 1230 | 370 |
| O=C(Cc1ccc(-c2ccccc2)cc1)NCC1COc2ccccc2O1 (stereo unspecified) |  | 1.6 | > 50000 | 559 | 98.7 | 1640 | 12300 | 228 |  | 108 | < 2.5 |  | Non-Toxic | 690 | 150 |
| Cc1cc(O)ccc1CC(=O)NCC1COc2ccccc2O1 (stereo unspecified) |  |  |  |  |  |  |  |  |  |  |  |  | Non-Toxic | 1100 | 458 |

Now from value to molecule, other results behind:

| IC50 [1] [nM] | half-life [2] [min] | IC50 (Cytochrome P450 3A4) [nM] | IC50 (Cytochrome P450 2C9) [nM] | remaining at 2 h [3] [%] | IC50 (Cytochrome P450 1A2) [nM] | IC50 (Cytochrome P450 2D6) [nM] | IC50 (Cytochrome P450 2C19) [nM] | IC50 [4] [nM] | remaining at 2 h [5] [%] | half-life [8] [min] | IC50 (A549 [9]) [nM] | Compound | Activity [6] | EC50 (A549 [7]) [nM] | EC50 (NCI-H460) [nM] |
| --- | --- | --- | --- | --- | --- | --- | --- | --- | --- | --- | --- | --- | --- | --- | --- |
| 5680 |  |  |  |  |  |  |  |  |  |  |  | Cc1ccc2c(CC(=O)NCC3COc4ccccc4O3)coc2c1 (stereo unspecified) |  |  |  |
| 7380 | 30.9 | > 50000 | 49500 | 69.8 | > 50000 | > 50000 | > 50000 | 10100 | 47.3 | 49.1 |  | O=C(O)c1cccc(-c2ccc(/C=N/NC(=O)C3COc4ccccc4O3)o2)c1 (stereo unspecified) | Non-Toxic | 12000 | 2980 |
|  |  |  |  |  |  |  |  |  |  |  | 40100 | Cc1ccc(S(=O)(=O)N[C@@H](CC(C)C)C(=O)N2CCCOCCOCCOCC2)cc1 |  |  |  |
|  | 0.7 | 36200 | 3460 | 97 | 417 | 29200 | 461 |  | 94.2 | 2.7 |  | CCc1ccc(CC(=O)NCC2COc3ccccc3O2)cc1 (stereo unspecified) | Non-Toxic | 688 | 204 |
